These results are taken from PubChem BioAssay AID1013 (Columbia University Molecular Screening Center, 2008).

Assay [1] can be described thus: inhibitors of TNFa-induced VCAM1 expression, confirmation, imaging, TNFa stimulus, retest and dose response (AID 1013).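 As to cell count: compound on cells 1 h before TNFa then 24 h more.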 Particulars: TNFa-stimulated cells, VCAM1 expression imaging; cell count; at 10 µM; stronger effect = lower value.
Assay [2] has as its system TNFa-stimulated cells, VCAM1 expression imaging. The description is as above.

The source made the active and inactive calls. No rule for the calls is given here.

The IC50 is the midpoint of a concentration-inhibition curve. `COc1ccc(OC)c(NS(=O)(=O)c2ccc(N3CCCC3=O)cc2)c1` returned a cell count in assay [1] of 43.7%. For the same compound, the 50% inhibitory concentration (IC50) in assay [2] was 2.93 µM.

`CC(=O)c1c(C)oc2ccc(N(C(C)=O)S(=O)(=O)c3ccc(Cl)c([N+](=O)[O-])c3)cc12` had a cell count in assay [1] of 104%. In assay [2], the IC50 is > 10 µM (inactive).

As for `O=Cc1cc2ccccc2nc1SCc1ccc(Cl)cc1`, in assay [1], the cell count is 99.9%. Also, the IC50 in assay [2] is > 10 µM (inactive).

In assay [1], `CC1CC(=O)NN=C1c1ccc(NCCO)c([N+](=O)[O-])c1` (stereo unspecified) showed a cell count of 71.6%. Also, the IC50 in assay [2] is 0.051 µM.

Compound `CCc1ccc(C(=O)/C=C/c2ccc([N+](=O)[O-])o2)cc1` gave a cell count in assay [1] of 94.9%. The IC50 in assay [2] was > 10 µM (inactive).

Turning to `Cc1cc(NC(=O)CSc2nc3ccccc3c(=O)n2C2CCCC2)no1`, in assay [1], the cell count stood at 111%. Also, the IC50 in assay [2] was > 10 µM (inactive).

Consider `COc1ccc(-c2cc(C(F)(F)F)n3nc(C(=O)Nc4cc(C)on4)cc3n2)cc1OC`, for which, in assay [1], the cell count came to 97.9%. Moreover, the IC50 in assay [2] was > 10 µM (inactive).

In the case of `COc1ccc(-n2nnnc2S(=O)(=O)CC(=O)N2CCCCC2)cc1`, the cell count in assay [1] came out at 4.64%. The IC50 in assay [2] is 3.02 µM.

As to `CCOC(=O)C1=C(c2ccccc2)O/C(=C(/C#N)C(F)(F)F)S1`, the cell count in assay [1] is 107%. The IC50 in assay [2] was > 10 µM (inactive).

In assay [1], `COc1ccc(NC(=O)/C(Cl)=C(/Cl)S(=O)Cc2ccc(C)cc2)cn1` (stereo unspecified) showed a cell count of 55%. In addition, in assay [2], the half-maximal inhibitory concentration (IC50) is 2.19 µM.

Turning to `N=c1c2c(-c3ccccc3)c(-c3ccccc3)n(Cc3ccccc3)c2ncn1CCCn1ccnc1`, the cell count in assay [1] was found to be 56.8%. In addition, the 50% inhibitory concentration (IC50) in assay [2] was 1.06 µM.

`Cc1ccc(-c2nc(NC(=O)c3nn(C)cc3[N+](=O)[O-])sc2C)cc1C` returned a cell count in assay [1] of 94.9%. Besides, the IC50 in assay [2] is > 10 µM (inactive).

As to `CCN(CC)c1ccc2c(c1)OC(N)=C(C#N)C2c1cccnc1` (stereo unspecified), the cell count in assay [1] was found to be 29.8%. The IC50 in assay [2] was 0.38 µM.

In the case of `Cc1cccc2cc(C#N)c(SCC(=O)N3CC(=O)Nc4ccccc43)nc12`, the cell count in assay [1] amounted to 110%. For the same compound, the IC50 in assay [2] was > 10 µM (inactive).

In the case of `CCC(=O)Nc1nc(-c2ccccc2)ns1`, the cell count in assay [1] was 115%. Also, the IC50 in assay [2] is > 10 µM (inactive).

In turn, `COC(=O)C[C@]1(C(=O)OC)CN(C#N)N(c2ccc(Cl)cc2)C12c1ccccc1-c1ccccc12` came in with a cell count in assay [1] of 104%. Also, in assay [2], the IC50 is > 10 µM (inactive).

For `CCOc1ccc(C2=Nn3c(nnc3-c3ccccc3OC)SC2)cc1`, the cell count in assay [1] is 32.1%. Moreover, in assay [2], the half-inhibitory concentration (IC50) was less than 0.1 µM.

Turning to `CC(/C=N/NC(=O)c1cc(-c2ccncc2)nc2ccccc12)=C\c1ccco1`, the cell count in assay [1] is 30.4%. In addition, the IC50 in assay [2] was 3.6 µM.

In turn, `O=C(NC(Nc1nc2ccc([N+](=O)[O-])cc2s1)(C(F)(F)F)C(F)(F)F)c1ccccc1` displayed a cell count in assay [1] of 46.9%. Also, the IC50 in assay [2] is 0.34 µM.

In turn, `COc1cc(-c2nnc3n2N=C(c2ccccc2)CS3)cc(OC)c1OC` displayed a cell count in assay [1] of 99.8%. Moreover, in assay [2], the IC50 was > 10 µM (inactive).

`NC(=S)N/N=C/c1ccc(-c2ccc(Cl)c(Cl)c2)o1` came in with a cell count in assay [1] of 93.5%. Further, the IC50 in assay [2] is > 10 µM (inactive).

In turn, `COCCOC(=O)c1[nH]c2c(c1C)C(=O)CC(c1ccccc1)C2` (stereo unspecified) returned a cell count in assay [1] of 63%. Further, in assay [2], the IC50 was > 10 µM (inactive).

The compound `CSc1nc(N(C)NC(=O)c2cccc(C)c2)c2ccccc2n1` returned a cell count in assay [1] of 39.5%. Moreover, the IC50 in assay [2] was 0.415 µM.

In assay [1], `CCN(CC)c1ccc(C2=NNC(=O)CC2C)cc1[N+](=O)[O-]` (stereo unspecified) gave a cell count of 50.8%. For the same compound, the IC50 in assay [2] was 0.0384 µM.

In assay [1], `O=c1cc(C(Cl)(Cl)Cl)oc2c1ccc1ccccc12` came in with a cell count of 104%. Besides, the IC50 in assay [2] was > 10 µM (inactive).

In assay [1], `O=[N+]([O-])/C=C/c1c(OCc2ccccc2)ccc2ccccc12` showed a cell count of 112%. The IC50 in assay [2] is > 10 µM (inactive).

In assay [1], `O=C(Nc1nccs1)c1cccc(N2C(=O)c3cccc4c([N+](=O)[O-])ccc(c34)C2=O)c1` returned a cell count of 102%. Also, the IC50 in assay [2] is > 10 µM (inactive).

`Cc1cc(C)c2nc(SCC(=O)N3CC(=O)Nc4ccccc43)c(C#N)cc2c1` displayed a cell count in assay [1] of 47.2%. Moreover, in assay [2], the IC50 was 4.81 µM.

In assay [1], `CC1=C([N+](=O)[O-])C(c2ccccc2)C2=C(N1)c1ccccc1C2=O` (stereo unspecified) came in with a cell count of 111%. Besides, the IC50 in assay [2] was > 10 µM (inactive).

Consider `CCN(CC)c1ccc(-c2nn3c(-c4ccccc4OC)nnc3s2)cc1`, for which, in assay [1], the cell count turned out to be 31.6%. Also, the 50% inhibitory concentration (IC50) in assay [2] is 2.97 µM.

In assay [1], `C/C=C/COC(=O)c1[nH]c2c(c1C)C(=O)CC(c1ccco1)C2` (stereo unspecified) came in with a cell count of 73.9%. In addition, the IC50 in assay [2] was > 10 µM (inactive).

In assay [1], `CCOc1ccccc1C(=O)N1CCN(c2cccc(Cl)c2)CC1` had a cell count of 15.7%. Moreover, the half-maximal inhibitory concentration (IC50) in assay [2] is 0.231 µM.

`COc1cc(C2C(C#N)=C(C)NC3=C2C(=O)c2ccccc23)cc(OC)c1OC` (stereo unspecified) yielded a cell count in assay [1] of 32%. The IC50 in assay [2] was 0.221 µM.
